{"source": "patent US20220098228A1", "about": "“METHODS AND COMPOSITIONS FOR IMPROVING THE IMMUNE SYSTEM AND PROVIDING IMMUNO-PROTECTION” (Natreon, Inc., priority 2020, published 2022)", "key": {"[1]": {"tested_on": "peritoneal macrophages", "experiment": "Peritoneal macrophage viability, trypan blue exclusion (Example III)", "format": "in vivo, Swiss albino mice", "details": "for % Viability Day 7, peritoneal macrophage viability: cyclophosphamide 250 mg/kg i.p. alone", "method": "(§1) Male and female Swiss albino mice (n=8; 4 from each gender) weighing approximately 25±5 g, were obtained from National Research Institute of Ayurveda for Drug Development (Govt. of India), Kolkata, and were housed in polypropylene cages at 22±3° C., relative air humidity of 45 to 55%, with 12.00 h light & dark cycle (lighting on from 6:00 AM to 6:00 PM). […] The mice were acclimatized for one week in the laboratory conditions, before being used in the experiment. All experiments were conducted between 10.00 h and 14.00 h. Principles of laboratory animal care (NIH publication no. 85-23, revised 1985) was followed.\n(§2) Cyclophosphamide was dissolved in distilled water and the mice were administered a single exposure (250 mg/kg, i.p.) on day 1.\n(§3) 3-OH-DBP, 3,8-(OH)2-DBP, and combined 3-OH-DBP+3,8-(OH)2-DBP were administered once daily for 7 days starting from day 1. Following 7 days of treatment the mice were anaesthetized and sacrificed under anaesthesia followed by collection of peritoneal macrophages and spleen (for splenocyte isolation).\n(§4) Swiss albino mice were randomly divided into 8 Groups (n=8; 4 from each gender). […] (2:10) (12 mg/kg b.w., p.o.), Group VI mice were administered 3-OH-DBP (10 mg/kg b.w., p.o.), Group VII mice were administered 3,8-(OH)2-DBP (50 mg/kg b.w., p.o.), Group VIII mice were administered [3-OH-DBP+3,8-(OH)2-DBP] (10:50) (60 mg/kg b.w., p.o.).\n(§5) All the animals were sacrificed under ether anesthesia and peritoneal macrophages were lavaged using ice cold phosphate buffer saline (PBS: 0.15 M NaCl; pH: 7.4). After centrifugation (3000 rpm×10 min) at 4° C., pellets were re-suspended in PBS and cell viability was confirmed by trypan blue exclusion assay.\n(§6) Results were expressed in terms of mean±SEM (n=8; 4 from each gender). Data were subjected to one way ANOVA followed by Tukey's test using GraphPad Prism 4.0 software to establish statistical significance (*p<0.05, **p<0.01, ***p<0.001, where * refers to comparison with Group I vehicle control; #p<0.05, ##p<0.01, ###p<0.001, where #refers to comparison with Group II cyclophosphamide administration; ^ap<0.05, ^aap<0.01, ^aap<0.01, where a refers to comparison of Day 7 with Day 0)."}, "[2]": {"tested_on": "peritoneal macrophages", "experiment": "NBT reduction of peritoneal macrophages (Example III)", "format": "in vivo, Swiss albino mice", "details": "for NBT reduction compared with vehicle control: cyclophosphamide, 3-OH-DBP 2 and 10 mg/kg, combined 12 mg/kg", "method": "as §1, §2, §3, §4, §5\nPreparation of NBT solution: 0.2% NBT (nitroblue tetrazolium) in PBS (pH 7.4), 5% dextrose and HBSS. These three solutions were mixed in 6:2:4 ratios.\n0.5 ml of NBT solution was added to 0.5 ml of peritoneal macrophages (1×10^6 cells/ml) in micro-centrifuge tube. This mixture was incubated at 37° C. for 2 hours. The cell suspension was centrifuged at 2000 rpm for 10 minutes. Supernatants were discarded and pellets were re-suspended in 1 ml of DMSO. The tubes were kept in boiling water bath for 10 minutes and then cooled and centrifuged at 2000 rpm for 10 minutes. The supernatants were collected and absorbance was measured at 515 nm.\nas §6"}, "[3]": {"details": "for Body Weight (gm) Day 0 / Feed Intake (gm) Day 0 / Water Intake (ml) Day 0 / Body Weight (gm) Day 7 / Feed Intake (gm) Day 7 / Water Intake (ml) Day 7: cyclophosphamide 250 mg/kg i.p. alone; for feed intake compared to vehicle control: 3,8-(OH)2-DBP 50 mg/kg", "method": "as §1, §2, §3, §4, §6"}, "[4]": {"tested_on": "splenocytes", "experiment": "Cell viability of splenocytes, trypan blue exclusion, cyclophosphamide-induced immunosuppression (Example II)", "format": "in vivo, Swiss albino mice", "method": "(§7) The mice were acclimatized for one week in the laboratory conditions, before being used in the experiment. All experiments were conducted between 10.00 hr and 14.00 hr. Principles of laboratory animal care (NIH publication no. 85-23, revised 1985) were followed.\n(§8) All test compounds (DBPs and DBP glycosides) were suspended in 0.3% of CMC (Carboxymethyl Cellulose) solutions of distilled water and were administered orally for 7 days by using an intubation canula. The volume of dose was 100 μl/10 g body weight. Cyclophosphamide was dissolved in distilled water and was injected (250 mg/kg, i.p.) on day one and volume of dose was 100 μl/10 g body weight. Control animals received equivalent volume of the vehicles CMC (0.3%) solutions only.\nSpleen was collected. Single cell suspension was prepared by mincing and tapping the spleen fragments on stainless steel 200-mesh in ice cold phosphate buffer saline (PBS: 0.15M NaCl pH 7.4). Cell suspension was centrifuged at 2000 rpm for 10 minutes. The pellet was re-suspended in PBS and cell viability was confirmed by trypan blue exclusion method."}, "[5]": {"tested_on": "peritoneal macrophages", "experiment": "NBT reduction assay in peritoneal macrophages, cyclophosphamide-induced immunosuppression (Example II)", "format": "in vivo, Swiss albino mice", "method": "as §7, §8\nOn day seven all the animals were sacrificed under ether anesthesia and peritoneal macrophages were lavaged using ice cold phosphate buffer saline (PBS: 0.15M NaCl pH-7.4). After centrifugation (3000 rpm×10 min) at 4° C. the pellet was re-suspended in PBS and cell viability was confirmed by trypan blue exclusion method. (Bala A, Haldar P K, Kar B, Naskar S and Mazumder U K, “Carbon tetrachloride: A hepatotoxin causes oxidative stress in murine peritoneal macrophage and peripheral blood lymphocyte cells” Immunopharmacol. and Immunotoxicol. 34(1): 157-162 (2012)).\nPreparation of NBT solution: 0.2% NBT (nitroblue tetrazolium) in PB (Phosphate Buffer, pH 7.4), 5% dextrose and HBSS (Hank's balanced salt solution). The three solutions were mixed in 6:2:4 ratios. (Saxena A K, Singh K P, Srivastava S N, Shukla L J and Shanker R., “Immunomodulating effects of caffeine in rodents” Ind J Exptl Biol. 22: 298-301 (1984)).\nMethod: 0.5 ml of NBT solution was added to 0.5 ml of peritoneal macrophages (1×10^6 cells/ml) in a micro-centrifuge tube. This mixture was incubated at 37° C. for 45 minutes. The cell suspension was centrifuged at 1500 rpm for 10 minutes. Supernatant was discarded and pellet was re-suspended in 2 ml of DMSO. The tubes were kept in a boiling water bath for 10 minutes. The tubes were again centrifuged at 1500 rpm for 10 minutes. The supernatant was collected, and absorbance was measured at 515 nm."}, "[6]": {"tested_on": "splenocytes", "experiment": "Splenocyte viability, trypan blue exclusion (Example III)", "format": "in vivo, Swiss albino mice", "details": "for % Viability Day7, splenocyte viability: Day 7, cyclophosphamide 250 mg/kg i.p. alone", "method": "as §1, §2, §3, §4\nSpleens were collected and single cell suspension was prepared by mincing and tapping the spleen fragments on stainless steel 200-mesh in ice cold phosphate buffer saline (PBS: 0.15M NaCl; pH: 7.4). Cell suspensions were centrifuged at 2000 rpm for 10 minutes.\nas §6"}, "[7]": {"details": "female mice, cyclophosphamide alone"}, "[8]": {"details": "cyclophosphamide 250 mg/kg i.p. day one, alone, day 7, Mean ± SD, n = 6"}}, "note": "Read-outs that look alike come from different tables or passages of the source. Marks after values point to notes of the source that are not given here.", "data": [{"smiles": "O=P1(N(CCCl)CCCl)NCCCO1", "note": "(stereo not shown) [Cyclophosphamide, reference compound]", "values": [{"measurement": "% Viability Day 7, peritoneal macrophage viability", "setting": "[1]; female mice", "value": "58.19 ± 0.60** %"}, {"measurement": "peritoneal macrophage viability compared with vehicle control", "setting": "[1]; [7]", "value": "significantly (p<0.05) decreased"}, {"measurement": "% Viability Day 7, peritoneal macrophage viability", "setting": "[1]; male mice", "value": "55.72 ± 2.18* %"}, {"measurement": "peritoneal macrophage viability compared with vehicle control", "setting": "[1]; male mice, cyclophosphamide, 3-OH-DBP 2 mg/kg, 3,8-(OH)2-DBP 10 mg/kg", "value": "significantly (p<0.05) decreased"}, {"measurement": "O.D. (515 nm) Day 7, NBT reduction of peritoneal macrophages", "setting": "[2]; female mice, Day 7, cyclophosphamide 250 mg/kg i.p. alone", "value": "0.119 ± 0.005***"}, {"measurement": "NBT reduction compared with vehicle control", "setting": "[2]; female mice, 3,8-(OH)2-DBP 10 and 50 mg/kg", "value": "significantly (p<0.05, p<0.01, p<0.001) decreased"}, {"measurement": "O.D (515 nm) Day 7, NBT reduction of peritoneal macrophages", "setting": "[2]; male mice, Day 7, cyclophosphamide 250 mg/kg i.p. alone", "value": "0.209 ± 0.02419***"}, {"measurement": "NBT reduction compared with vehicle control", "setting": "[2]; male mice, 3,8-(OH)2-DBP 10 mg/kg", "value": "significantly (p<0.01, p<0.001) decreased"}, {"measurement": "Body Weight (gm) Day 0", "setting": "[3]; female mice", "value": "23.00 ± 1.89", "unit": "gm"}, {"measurement": "Feed Intake (gm) Day 0", "setting": "[3]; female mice", "value": "28.50 ± 0.96", "unit": "gm"}, {"measurement": "Water Intake (ml) Day 0", "setting": "[3]; female mice", "value": "3.620 ± 0.16", "unit": "mL"}, {"measurement": "Body Weight (gm) Day 7", "setting": "[3]; female mice", "value": "21.75 ± 0.63", "unit": "gm"}, {"measurement": "Feed Intake (gm) Day 7", "setting": "[3]; female mice", "value": "24.71 ± 0.41^a gm"}, {"measurement": "Water Intake (ml) Day 7", "setting": "[3]; female mice", "value": "6.425 ± 0.48", "unit": "mL"}, {"measurement": "feed intake compared to vehicle control", "setting": "[3]; female mice, cyclophosphamide, 3-OH-DBP 10 mg/kg", "value": "significantly (p<0.05, p<0.01) decreased"}, {"measurement": "Body Weight (gm) Day 0", "setting": "[3]; male mice", "value": "30.75 ± 1.89", "unit": "gm"}, {"measurement": "Feed Intake (gm) Day 0", "setting": "[3]; male mice", "value": "28.50 ± 0.96", "unit": "gm"}, {"measurement": "Water Intake (ml) Day 0", "setting": "[3]; male mice", "value": "6.125 ± 0.16", "unit": "mL"}, {"measurement": "Body Weight (gm) Day 7", "setting": "[3]; male mice", "value": "30.50 ± 2.18", "unit": "gm"}, {"measurement": "Feed Intake (gm) Day 7", "setting": "[3]; male mice", "value": "26.81 ± 0.86^a gm"}, {"measurement": "Water Intake (ml) Day 7", "setting": "[3]; male mice", "value": "5.863 ± 0.15*,## ml"}, {"measurement": "feed intake compared to vehicle control", "setting": "[3]; male mice, cyclophosphamide, 3-OH-DBP 10 mg/kg", "value": "significantly (p<0.05, p<0.01) decreased"}, {"measurement": "feed intake Day 7 in comparison to Day 0", "setting": "[3]; male mice, cyclophosphamide, 3-OH-DBP 10 mg/kg, 3,8-(OH)2-DBP 10 and 50 mg/kg", "value": "significantly (p<0.05, p<0.01) decreased"}, {"measurement": "% Cell Viability of splenocytes", "setting": "[4]; [8]", "value": "51.12 ± 4.69", "unit": "%"}, {"measurement": "splenocyte viability", "setting": "[4]; cyclophosphamide alone vs control", "value": "significantly (p<0.01) decreased"}, {"measurement": "OD (515 nm), NBT reduction assay in peritoneal macrophages", "setting": "[5]; [8]", "value": "0.117 ± 0.015"}, {"measurement": "NBT reduction capacity of peritoneal macrophages", "setting": "[5]; cyclophosphamide alone vs CMC control", "value": "significant (p<0.001) decrease"}, {"measurement": "% Viability Day7, splenocyte viability", "setting": "[6]; female mice", "value": "79.70 ± 1.58*** %"}, {"measurement": "splenocyte viability compared with vehicle control", "setting": "[6]; [7]", "value": "significantly (p<0.001) decreased"}, {"measurement": "% Viability Day7, splenocyte viability", "setting": "[6]; male mice", "value": "70.22 ± 0.98*** %"}, {"measurement": "splenocyte viability compared with vehicle control", "setting": "[6]; male mice, cyclophosphamide, 2 mg/kg 3-OH-DBP, 10 mg/kg 3,8-(OH)2-DBP, 12 mg/kg combined", "value": "significantly (p<0.001) decreased"}]}]}
